One assay concerns the target T1, CLK1 (Homo sapiens, UniProt P49759).
T1 construct: GST-fusion or His-tag (not specified per kinase); purchased ProQinase GmbH; host or cells: Sf9 insect cells or E. coli (not specified per kinase)
The assay can be described thus: Radiometric protein kinase assay (33PanQinase Activity Assay), CLK1. The format is biochemical. Conditions: read-out: Potency Class CLK1. In outline:
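33P incorporation counted by microplate scintillation after H3PO4 stop and NaCl washes; IC50 fitted from dose-response curves. Reactions of kinase/substrate, [γ-33P]-ATP and compound ran 60 min at 30 °C, 1% DMSO final, 10 concentrations (10 μM–30 nM).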

The target in a further assay is T2, DYRK1A (Homo sapiens, UniProt Q13627).
T2 construct: GST-fusion or His-tag (not specified per kinase); purchased ProQinase GmbH; host or cells: Sf9 insect cells or E. coli (not specified per kinase)
The assay can be described thus: Radiometric protein kinase assay (33PanQinase Activity Assay), DYRK1A. The format is biochemical. The settings on record: for Selectivity Class DYRK1A vs. CLK1: ratio of IC50 on CLK1 over IC50 on DYRK1A; for Selectivity Class DYRK1A vs. DYRK1B: ratio of IC50 on DYRK1B over IC50 on DYRK1A. In outline: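 Recombinant human kinase, expressed in Sf9 or E. coli, in a radiometric [γ-33P]-ATP assay at 30 °C for 60 min. Compounds tested at 10 concentrations from 10 μM to 30 nM, 1% DMSO final. 33Pi incorporation measured by scintillation counting; IC50 from dose-response curves.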

[1] abbreviates: class by IC50 on CLK1, from dose-response curves.
[2] abbreviates: class by IC50 on DYRK1A, from dose-response curves, read-out: Potency Class DYRK1A.

Data on 20 compounds can be found in US20250340538A1, “IMIDAZOLONE DERIVATIVES AS INHIBITORS OF PROTEIN KINASES IN PARTICULAR DYRK1A, CLK1 AND/OR CLK4” (PERHA PHARMACEUTICALS, priority 2021, published 2025).

Like-named read-outs stand apart in the source and are kept apart here.

T1 sequence (P49759 whole entry, the tested form may be a part): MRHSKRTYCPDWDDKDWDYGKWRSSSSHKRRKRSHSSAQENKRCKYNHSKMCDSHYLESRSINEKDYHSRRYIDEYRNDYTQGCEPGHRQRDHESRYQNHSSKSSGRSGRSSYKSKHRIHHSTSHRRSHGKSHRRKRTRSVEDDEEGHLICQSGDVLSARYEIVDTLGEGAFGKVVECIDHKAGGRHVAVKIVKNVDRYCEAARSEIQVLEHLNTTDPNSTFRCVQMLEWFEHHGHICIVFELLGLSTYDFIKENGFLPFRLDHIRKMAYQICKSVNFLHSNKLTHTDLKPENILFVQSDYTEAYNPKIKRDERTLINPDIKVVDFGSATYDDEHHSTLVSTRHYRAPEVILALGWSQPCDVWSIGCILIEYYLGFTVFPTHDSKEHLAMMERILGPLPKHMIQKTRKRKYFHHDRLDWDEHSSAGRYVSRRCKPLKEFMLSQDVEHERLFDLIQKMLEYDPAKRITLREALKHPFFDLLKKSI

Turning to `CC(C)C[C@H](CO)NC1=N/C(=C\c2ccc3cnccc3c2)C(=O)N1` [Compound 59, (4Z)-2-[[(1R)-1-(hydroxymethyl)-3-methyl-butyl]amino]-4-(6-isoquinolylmethylene)-1H-imidazol-5-one], the IC50 on CLK1 (setting [1]) was over 0.05 µM. The IC50 at DYRK1A (setting [2]) is over 0.05 µM. In addition, at DYRK1A, the “Selectivity Class DYRK1A vs. CLK1” value is “III (ratio between 0.5 and 2 fold)”; the “Selectivity Class DYRK1A vs. DYRK1B” value was “III (ratio between 0.5 and 2 fold)”.
As for `O=C1NC(NC23CC4CC(CC(C4)C2)C3)=N/C1=C\c1ccc2ncncc2c1` [Compound 68, (4Z)-2-(1-adamantylamino)-4-(quinazolin-6-ylmethylene)-1H-imidazol-5-one], the IC50 at CLK1 (setting [1]) and at DYRK1A (setting [2]) was over 0.05 µM in each case. Also, on DYRK1A, the “Selectivity Class DYRK1A vs. CLK1” value was “III (ratio between 0.5 and 2 fold)”. Besides, the “Selectivity Class DYRK1A vs. DYRK1B” value at DYRK1A was “II (ratio between 2 and 10 fold)”.
With `CN1C(=O)/C(=C/c2ccc3ncncc3c2)N=C1NC1CCCCCC1` [Compound 89, (5Z)-2-(Cycloheptylamino)-3-methyl-5-(quinazolin-6-ylmethylene)imidazol-4-one], at CLK1 (setting [1]), the IC50 is over 0.05 µM. Besides, at DYRK1A (setting [2]), the IC50 is over 0.05 µM. Also, on DYRK1A, the “Selectivity Class DYRK1A vs. CLK1” value was “III (ratio between 0.5 and 2 fold)”; the “Selectivity Class DYRK1A vs. DYRK1B” value is “III (ratio between 0.5 and 2 fold)”.
As for `CC(C)C[C@@H](CF)NC1=N/C(=C\c2ccc3nccnc3c2)C(=O)N1` [Compound 15, (4Z)-2-[[(1S)-1-(Fluoromethyl)-3-methyl-butyl]amino]-4-(quinoxalin-6-ylmethylene)-1H-imidazol-5-one], the IC50 on CLK1 (setting [1]) and at DYRK1A (setting [2]) was over 0.05 µM each time. In addition, on DYRK1A, the “Selectivity Class DYRK1A vs. CLK1” value was “III (ratio between 0.5 and 2 fold)”. Further, the “Selectivity Class DYRK1A vs. DYRK1B” value at DYRK1A is “III (ratio between 0.5 and 2 fold)”.
Consider `O=C1NC(N[C@@H]2CCCOC2)=N/C1=C\c1ccc2cnccc2c1` [Compound 67, (4Z)-4-(6-isoquinolylmethylene)-2-[[(3R)-tetrahydropyran-3-yl]amino]-1H-imidazol-5-one], for which, at CLK1 (setting [1]), the IC50 was over 0.05 µM. On DYRK1A (setting [2]), the IC50 is over 0.05 µM. For the same compound, on DYRK1A, the “Selectivity Class DYRK1A vs. CLK1” value was “III (ratio between 0.5 and 2 fold)”; the “Selectivity Class DYRK1A vs. DYRK1B” value was “III (ratio between 0.5 and 2 fold)”.
Consider `CO[C@@H]1CCC[C@@H](NC2=N/C(=C\c3ccc4nccnc4c3)C(=O)N2)CC1` (racemic) [Compound 7, (+)-(4Z)-2-[[trans-4-methoxycycloheptyl]amino]-4-(quinoxalin-6-ylmethylene)-1H-imidazol-5-one], for which the IC50 at CLK1 (setting [1]) is over 0.05 µM. The IC50 at DYRK1A (setting [2]) is over 0.05 µM. Also, at DYRK1A, the “Selectivity Class DYRK1A vs. CLK1” value is “II (ratio between 2 and 10 fold)”; the “Selectivity Class DYRK1A vs. DYRK1B” value is “II (ratio between 2 and 10 fold)”.
`CN1C(=O)/C(=C/c2ccc3nccnc3c2)N=C1NC1CCCCC1` [Compound 82, (5Z)-2-(Cyclohexylamino)-3-methyl-5-(quinoxalin-6-ylmethylene)imidazol-4-one]: the IC50 at CLK1 (setting [1]) was over 0.05 µM. Besides, on DYRK1A (setting [2]), the IC50 is over 0.05 µM. Also, on DYRK1A, the “Selectivity Class DYRK1A vs. CLK1” value is “III (ratio between 0.5 and 2 fold)”; the “Selectivity Class DYRK1A vs. DYRK1B” value was “III (ratio between 0.5 and 2 fold)”.
In the case of `CC(C)C[C@H](CO)NC1=N/C(=C\c2ccc3ncccc3c2)C(=O)N1` [Compound 46, (4Z)-2-[[(1R)-1-(hydroxymethyl)-3-methyl-butyl]amino]-4-(6-quinolylmethylene)-1H-imidazol-5-one], the IC50 at CLK1 (setting [1]) is over 0.05 µM. For the same compound, the IC50 at DYRK1A (setting [2]) is 0.01 to 0.025 µM. Also, at DYRK1A, the “Selectivity Class DYRK1A vs. CLK1” value is “II (ratio between 2 and 10 fold)”; the “Selectivity Class DYRK1A vs. DYRK1B” value is “II (ratio between 2 and 10 fold)”.
As to `CN1CCN(c2ccc(NC3=N/C(=C\c4ccc5nccnc5c4)C(=O)N3)cc2)CC1` [Compound 33, (4Z)-2-[4-(4-Methylpiperazin-1-yl)anilino]-4-(quinoxalin-6-ylmethylene)-1H-imidazol-5-one], at CLK1 (setting [1]), the IC50 is over 0.05 µM. Moreover, the IC50 on DYRK1A (setting [2]) is 0.025 to 0.05 µM. In addition, on DYRK1A, the “Selectivity Class DYRK1A vs. CLK1” value is “II (ratio between 2 and 10 fold)”; the “Selectivity Class DYRK1A vs. DYRK1B” value was “II (ratio between 2 and 10 fold)”.
For `O=C1NC(NC2CCCCC2)=N/C1=C\c1ccc2ncccc2c1` [Compound 43, (4Z)-2-(Cyclohexylamino)-4-(6-quinolylmethylene)-1H-imidazol-5-one], the IC50 on CLK1 (setting [1]) and on DYRK1A (setting [2]) was over 0.05 µM throughout. Also, the “Selectivity Class DYRK1A vs. CLK1” value on DYRK1A is “III (ratio between 0.5 and 2 fold)”. Besides, on DYRK1A, the “Selectivity Class DYRK1A vs. DYRK1B” value was “II (ratio between 2 and 10 fold)”.
Consider `COC[C@H](NC1=N/C(=C\c2ccc3nccnc3c2)C(=O)N1)c1ccccc1` [Compound 26, (4Z)-2-[[(1R)-2-methoxy-1-phenyl-ethyl]amino]-4-(quinoxalin-6-ylmethylene)-1H-imidazol-5-one], for which the IC50 on CLK1 (setting [1]) and at DYRK1A (setting [2]) was over 0.05 µM each time. Also, on DYRK1A, the “Selectivity Class DYRK1A vs. CLK1” value is “III (ratio between 0.5 and 2 fold)”. Besides, the “Selectivity Class DYRK1A vs. DYRK1B” value at DYRK1A is “II (ratio between 2 and 10 fold)”.
As for `O=C1NC(N[C@@H]2CCOC2)=N/C1=C\c1ccc2ncccc2c1` [Compound 55, (4Z)-4-(6-Quinolylmethylene)-2-[[(3R)-tetrahydrofuran-3-yl]amino]-1H-imidazol-5-one], the IC50 at CLK1 (setting [1]) and on DYRK1A (setting [2]) was over 0.05 µM each time. Further, the “Selectivity Class DYRK1A vs. CLK1” value on DYRK1A is “III (ratio between 0.5 and 2 fold)”. For the same compound, on DYRK1A, the “Selectivity Class DYRK1A vs. DYRK1B” value is “III (ratio between 0.5 and 2 fold)”.
For the compound `Cc1cnc(CNC2=N/C(=C\c3ccc4ncccc4c3)C(=O)N2)cn1` [Compound 53, (4Z)-2-[(5-Methylpyrazin-2-yl)methylamino]-4-(6-quinolylmethylene)-1H-imidazol-5-one], the IC50 on CLK1 (setting [1]) was over 0.05 µM. Besides, the IC50 on DYRK1A (setting [2]) is over 0.05 µM. At DYRK1A, the “Selectivity Class DYRK1A vs. CLK1” value was “IV (ratio between 0.1 and 0.5 fold)”; the “Selectivity Class DYRK1A vs. DYRK1B” value is “III (ratio between 0.5 and 2 fold)”.
As to `CC(C)C[C@H](CO)NC1=N/C(=C\c2ccc3nccnc3c2)C(=O)N1` [Compound 9, (4Z)-2-[[(1R)-1-(hydroxymethyl)-3-methyl-butyl]amino]-4-(quinoxalin-6-ylmethylene)-1H-imidazol-5-one], the IC50 is 0.025 to 0.05 µM at CLK1 (IC50 class A to E); 0.025 to 0.05 µM at CLK1 (setting [1]); 0.005 to 0.01 µM at DYRK1A (IC50 class A to E, read-out: Potency Class DYRK1A); 0.005 to 0.01 µM at DYRK1A (setting [2]); at most 0.01 µM on DYRK1A (read-out: IC50 on DYRK1A (most potent DYRK1A inhibitors)). For the same compound, the “Selectivity Class DYRK1A vs. CLK1” value on DYRK1A was “II (ratio between 2 and 10 fold)”. For the same compound, the “Selectivity Class DYRK1A vs. DYRK1B” value on DYRK1A is “II (ratio between 2 and 10 fold)”.
Regarding `CN1C(=O)/C(=C/c2ccc3ncccc3c2)N=C1NC1CCCCC1` [Compound 84, (5Z)-2-(Cyclohexylamino)-3-methyl-5-(quinolin-6-ylmethylene)imidazol-4-one], the IC50 on CLK1 (setting [1]) and on DYRK1A (setting [2]) was over 0.05 µM in each case. Further, the “Selectivity Class DYRK1A vs. CLK1” value on DYRK1A is “III (ratio between 0.5 and 2 fold)”. Further, the “Selectivity Class DYRK1A vs. DYRK1B” value at DYRK1A is “III (ratio between 0.5 and 2 fold)”.
On to `O=C1NC(NCc2ccccc2)=N/C1=C\c1ccc2nccnc2c1` [Compound 21], for which, on CLK1 (setting [1]), the IC50 is over 0.05 µM. Moreover, the IC50 on DYRK1A (setting [2]) was over 0.05 µM. Moreover, at DYRK1A, the “Selectivity Class DYRK1A vs. CLK1” value was “III (ratio between 0.5 and 2 fold)”; the “Selectivity Class DYRK1A vs. DYRK1B” value was “II (ratio between 2 and 10 fold)”.
As for `O=C1NC(N[C@@H]2CCCOC2)=N/C1=C\c1ccc2ncccc2c1` [Compound 56, (4Z)-4-(6-quinolylmethylene)-2-[[(3R)-tetrahydropyran-3-yl]amino]-1H-imidazol-5-one], the IC50 on CLK1 (setting [1]) was over 0.05 µM. The IC50 at DYRK1A (setting [2]) is over 0.05 µM. For the same compound, on DYRK1A, the “Selectivity Class DYRK1A vs. CLK1” value was “III (ratio between 0.5 and 2 fold)”; the “Selectivity Class DYRK1A vs. DYRK1B” value was “II (ratio between 2 and 10 fold)”.
Consider `O=C1NC(NC2CCCCCC2)=N/C1=C\c1ccc2ncccc2c1` [Compound 44, (4Z)-2-(cycloheptylamino)-4-(6-quinolylmethylene)-1H-imidazol-5-one], for which the IC50 on CLK1 (setting [1]) and on DYRK1A (setting [2]) was over 0.05 µM throughout. On DYRK1A, the “Selectivity Class DYRK1A vs. CLK1” value is “III (ratio between 0.5 and 2 fold)”. The “Selectivity Class DYRK1A vs. DYRK1B” value at DYRK1A was “II (ratio between 2 and 10 fold)”.
`Cn1ccc(NC2=N/C(=C\c3ccc4ncccc4c3)C(=O)N2)n1` [Compound 54, (4Z)-2-[(1-methylpyrazol-3-yl)amino]-4-(6-quinolylmethylene)-1H-imidazol-5-one]: the IC50 on CLK1 (setting [1]) was over 0.05 µM. On DYRK1A (setting [2]), the IC50 was over 0.05 µM. At DYRK1A, the “Selectivity Class DYRK1A vs. CLK1” value is “III (ratio between 0.5 and 2 fold)”; the “Selectivity Class DYRK1A vs. DYRK1B” value was “II (ratio between 2 and 10 fold)”.
As to `Cn1ccc(NC2=N/C(=C\c3ccc4nccnc4c3)C(=O)N2)n1` [Compound 34, (4Z)-2-[(1-methylpyrazol-3-yl)amino]-4-(quinoxalin-6-ylmethylene)-1H-imidazol-5-one], at CLK1 (setting [1]), the IC50 is over 0.05 µM. In addition, on DYRK1A (setting [2]), the IC50 is over 0.05 µM. On DYRK1A, the “Selectivity Class DYRK1A vs. CLK1” value was “III (ratio between 0.5 and 2 fold)”; the “Selectivity Class DYRK1A vs. DYRK1B” value was “II (ratio between 2 and 10 fold)”.
